According to article PMC3081638 (The Journal of neuroscience : the official journal of the …, 2011):

How the values were obtained:
nicotinic α4β2 receptor = nicotinic α4β2 receptor (Homo sapiens, UniProt P43681); details: ref Paradiso et al., 2001; cited from earlier work
α/β & β2 = α/β & β2 (Homo sapiens, UniProt P17787+P43681); test: Agonist activation, two-electrode voltage clamp of Xenopus oocytes; format: cell-based
α/β&β2F119Q = α/β&β2F119Q (Homo sapiens, UniProt P17787+P43681, F144Q); test: as above; format: cell-based
β/α & α4 = β/α & α4 (Homo sapiens, UniProt P17787+P43681); test: as above; format: cell-based; details: response to 1 μM 5I A85380 normalized to the response to 1 mM ACh
(α4)2(β3)3 = (α4)2(β3)3 receptor; ref Zwart et al., 2006; cited from earlier work
[1] = target: β/α concatemer expressed alone (Homo sapiens, UniProt P17787+P43681); test: Agonist activation, two-electrode voltage clamp of Xenopus oocytes; format: cell-based; details: response to 1 μM 5I A85380 normalized to the response to 1 mM ACh
[2] = target: α/β concatemer expressed alone (Homo sapiens, UniProt P17787+P43681); test: as above; format: cell-based; details: response to 1 μM 5I A85380 normalized to the response to 1 mM ACh
β/α & β2 = β/α & β2 (Homo sapiens, UniProt P17787+P43681); test: as above; format: cell-based
[3] = target: nicotinic α4β2 receptor, α4 & β2 1:8 (Homo sapiens, UniProt P17787+P43681); test: as above; format: cell-based; details: response to 1 μM 5I A85380 normalized to the response to 1 mM ACh
α/β & α4 = α/β & α4 (Homo sapiens, UniProt P17787+P43681); test: as above; format: cell-based; details: response to 1 μM 5I A85380 normalized to the response to 1 mM ACh
[4] = target: nicotinic α4β2 receptor, α4 & β2 8:1 (Homo sapiens, UniProt P17787+P43681); test: as above; format: cell-based; details: response to 1 μM 5I A85380 normalized to the response to 1 mM ACh
β/α&β2F119Q = β/α&β2F119Q (Homo sapiens, UniProt P17787+P43681, F144Q); test: as above; format: cell-based
α/β&β-M3-α = α/β&β-M3-α (Homo sapiens, UniProt P17787+P43681, A332P/K336R/P333T/T327R/V337R); format: cell-based; details: β-M3-α chimera (α4 sequence transferred to β2); 10 μM; Figure 6
α/β&α-M3-β = format: cell-based, human; details: α-M3-β chimera with the α/β concatemer; 10 μM; Figure 6
[5] = system: nicotinic α4β2 receptor, pooled combinations of constructs; test: Steroid potentiation, values pooled over combinations of constructs; format: cell-based, human; details: for mean potentiation, single copy of WLAGMI: 10 μM 17β-estradiol
αWLAAC with α/β = αWLAAC with α/β (Homo sapiens, UniProt P43681); format: cell-based; details: 10 μM, Figure 6
β/αWLAAC&β2 = β/αWLAAC&β2 (Homo sapiens, UniProt P17787+P43681); format: cell-based; details: β/αWLAAC concatemer with free β2; 10 μM; Figure 6

Structure (SMILES): CC12CCC3c4ccc(O)cc4CCC3C1CCC2O (single isomer, unassigned) [enantiomer of 17β-estradiol]
- potentiation of the α4β2 receptor (in words) (nicotinic α4β2 receptor): does not potentiate

Structure (SMILES): Ic1cncc(OC[C@@H]2CCN2)c1 [5I A85380, 5-iodo-3-(2(S)-azetidinylmethoxy) pyridine]
- EC50 (α/β & β2): 8 ± 1 nM
- 5I A85380 response (α/β & β2; α/β & β2, response to 1 μM 5I A85380 normalized to the response to 1 mM ACh): 1.84
- 5I A85380 maximal response (α/β & β2; α/β concatemer with wild-type β2, normalized to the response to 1 mM ACh): 1.44 ± 0.07 fold
- EC50 (α/β&β2F119Q): 127 ± 14 nM
- 5I A85380 maximal response (α/β&β2F119Q; α/β concatemer with β2F119Q, normalized to the response to 1 mM ACh): 1.13 ± 0.11 fold
- 5I A85380 response (β/α & α4): 0.17
- maximal response to 5I A85380 compared with ACh ((α4)2(β3)3): greater than the maximal response to ACh
- 5I A85380 response [1]: 0.44
- 5I A85380 response [2]: 0.16
- EC50 (β/α & β2): 29 ± 12 nM
- 5I A85380 response (β/α & β2; β/α & β2, response to 1 μM 5I A85380 normalized to the response to 1 mM ACh): 1.59
- 5I A85380 maximal response (β/α & β2; β/α concatemer with β2, normalized to the response to 1 mM ACh): 1.44 ± 0.10 fold
- 5I A85380 response [3]: 1.44
- 5I A85380 response (α/β & α4): 0.14
- 5I A85380 response [4]: 0.19
- EC50 (β/α&β2F119Q): 16 ± 1 nM
- 5I A85380 maximal response (β/α&β2F119Q; β/α concatemer with β2F119Q, normalized to the response to 1 mM ACh): 1.29 ± 0.04 fold

Structure (SMILES): C[C@]12CC[C@@H]3c4ccc(O)cc4CC[C@H]3[C@@H]1CC[C@@H]2O [17β-estradiol]
- potentiation by 17β-estradiol (in words) (α/β&β-M3-α): confers potentiation
- potentiation by 17β-estradiol (in words) (α/β&α-M3-β): removes potentiation
- average potentiation by 10 μM 17β-estradiol ([5]; 0 WLAGMI domains, 10 combinations tested): 0.97 ± 0.02
- average potentiation by 10 μM 17β-estradiol ([5]; 1 WLAGMI domain, 10 combinations): 2.2 ± 0.2
- average potentiation by 10 μM 17β-estradiol ([5]; 2 WLAGMI domains, 5 combinations): 2.4 ± 0.4
- average potentiation by 10 μM 17β-estradiol ([5]; 3 WLAGMI domains, 4 combinations): 3.3 ± 0.2
- average potentiation by 10 μM 17β-estradiol ([5]; 5 WLAGMI domains, 3 combinations): 3.7 ± 0.3
- mean potentiation by 17β-estradiol ([5]; 5 cases with no untethered AGMI and 2 or 3 critical tryptophans): 0.94 ± 0.04
- mean potentiation, single copy of WLAGMI ([5]; WLAGMI on α4 N-terminal constructs, N=2 combinations): 1.6 ± 0.1 fold
- mean potentiation, single copy of WLAGMI ([5]; WLAGMI on β2 N-terminal constructs, N=8 combinations): 2.3 ± 0.3 fold
- mean potentiation, single copy of WLAGMI ([5]; domain on the structural subunit, 4 combinations): 2.4 ± 0.5 fold
- potentiation by 17β-estradiol (in words) (αWLAAC with α/β): removes potentiation
- potentiation by 17β-estradiol (in words) (β/αWLAAC&β2): but not when it is expressed with free β2
